For assay [1], the system named is peptide-loaded T2 cells. Kind of assay: Cytotoxicity assay (LDH) of peptide-specific patient T-cell cultures against peptide-loaded T2 cells. It counts as cell-based, human. The note with it: for Peptide-specific lysis (Number of patients): patients of eleven HLA-A2-expressing prostate cancer patients with peptide-specific T cells after 2-4 in vitro stimulations; for Peptide-specific lysis of T2 cells by peptide-specific T-cells (FIG. 6): patient T-cell lines, three effector-to-target ratios. As to the method: (§1) Human prostate cancer patients underwent leukapheresis, and PBMCs were isolated using a Ficoll-Paque gradient (Pharmacia, Kirkland, Quebec). Immature dendritic cells (iDCs) were generated by incubating flask-adherent PBMCs with 20 ng/mL granulocyte-macrophage colony stimulating factor and 10 ng/mL interleukin four (IL-4) for six days at 37° C./5% CO2 (cytokines from: Fitzgerald Industries, Concord, Mass.). These iDCs were then treated with 150 ng/mL IL-6, 10 ng/mL IL-1β, 10 ng/mL tumor necrosis factor alpha (TNF-α), and […] prostaglandin E2 (Fitzgerald Industries) to generate mature dendritic cells (mDCs). These mDCs were then pulsed with 20 μg/mL AR LBD-derived peptide, and after being irradiated were co-incubated with CD4+ and CD8+ T-cells negatively isolated from autologous PBMCs (Invitrogen, Carlsbad, Calif.). After incubating for 24 hours, these cultures were then treated with 10 U/mL IL-2 and 30 U/mL IL-7 (Fitzgerald Industries), and incubated for another 6 days. These cultured T-cells were re-stimulated weekly using peptide-pulsed antigen presenting cells (either mDCs or the TK6 lymphoma cell line).
(§2) T-cell cultures that underwent at least two stimulations (or splenocyte cultures that had undergone one stimulation) were collected and incubated for four hours with target cells (either T2 cells pulsed for two hours with a specific or non-specific peptide, the LNCaP prostate cancer cell line, or media alone) at various effector-to-target ratios. After incubation, supernatants were collected and levels of lactate dehydrogenase were measured using the CytoTox 96 Non-Radioactive Assay (Promega). The relative percentage of peptide-specific lysis was quantitated using the following equation: […]
(§3) To characterize CD8+ T-cell responses to the AR LBD, the amino acid sequence of the AR LBD was evaluated for potential HLA-A2-binding epitopes that fit the consensus peptide binding sequence of X-L/M-X-X-X-V-X-X-V/L (SEQ ID NO:8), using the algorithm of Parker and colleagues (Parker K C et al., 1994, J. Immunol. 152:163-175). […] These peptides were synthesized and then characterized for their affinity for HLA-A2 in vitro using T2 binding assays. […] Peptide-specific T-cell lines were then cultured from the peripheral blood of 11 HLA-A2^+ patients with prostate cancer, using each of these peptides, and then tested for their cytolytic activity against both peptide-pulsed HLA-A2-expressing target cells and the HLA-A2^+ LNCaP prostate cancer cell line. Specifically, naive T cells were isolated by magnetic negative selection (Dynal) from the peripheral blood mononuclear cells (PBMCs) of HLA-A2-expressing prostate cancer patients, and cultured in the presence of autologous cytokine-matured irradiated dendritic cells (mDC) that had been loaded with individual peptides. These cultures received interleukin 2 (IL-2) and IL-7 the day after the culture, and were re-stimulated weekly with peptide-pulsed mDCs. Beginning after two weeks of stimulation, the T-cell cultures were tested weekly for their cytolytic activity using peptide-loaded T2 cells as target cells. Peptide-specific T-cells could be cultured from the majority of patients to at least one of these peptides, and peptide-specific T-cell lines could be cultured from the majority (7/11) of HLA-A2-expressing patients against the AR811 peptide in particular (Table 2).
(§4) Table 2. Compiled results of T cell culturing and cytotoxicity assays. Shown in this table are the results obtained from cytotoxicity assays of T cell cultures from eleven HLA-A2-expressing patients with prostate cancer. In the second column is the number of patients for which peptide-specific T cells could be identified following 2-4 in vitro stimulations.

The test system of assay [2] is HLA-A2+ LNCaP prostate cancer cell line. Kind of assay: Cytotoxicity assay (LDH) of peptide-specific patient T-cell cultures against LNCaP. It counts as cell-based, human. More on the design: key to Prostate cancer cell lysis: +: positive lysis; −: no lysis; +/−: inconclusive. The note with it: for Prostate cancer cell lysis: peptide-specific T cells against HLA-A2+ LNCaP; for Lysis of the LNCaP cell line by peptide-specific T-cells (FIG. 6): patient T-cell lines, three effector-to-target ratios. As to the method: as §1, §2, §3, §4

Assay [3] concerns IFNγ and TNFα. Nature of the assay: Intracellular cytokine staining of AR811-specific T-cell clone. It counts as cell-based, human. The note with it: clone restimulated with peptide, gated on CD3+/CD8+ cells. As for the experimental part:
A clonal T-cell line specific for the AR811 peptide was derived by limited dilution following multiple restimulations in vitro. This line was restimulated for 5 hours in vitro with T2 cells and media only (panel A), an irrelevant peptide (panel B), AR811 peptide (panel C), or PMA/Ionomycin (panel D). IFNγ and TNFα cytokine accumulation were assessed by intracellular flow cytometric analysis (Cytofix/cytoperm kit, BD Pharmingen). Cells were first stained for CD3 and CD8 expression and CD3+/CD8+ cells were analyzed for IFNγ and TNFα expression. Shown are the plots gated on CD3+/CD8+ cells.
After T-cell cultures containing AR LBD peptide-specific T-cells were identified, peptide-specific T-cell clones were isolated using limited-dilution cloning. Briefly, cultured T-cells were diluted to 400 cells/mL, and were diluted at a 1:1 ratio down the rows of a 96-well plate. These T-cells were mixed with 2×10^5 autologous PBMCs, as well as an anti-CD3 antibody (Clone UCHT1, BD Biosciences, 120 ng/mL) and IL-2 (Fitzgerald Industries, 200 U/mL), and were incubated at 37° C./5% CO2 for 12-14 days. Cultures generated from a single cell were identified, and their peptide-specificity was analyzed using a mini-cytotoxicity assay (as above). […] After three additional days, expanded T-cell clones were analyzed for cytotoxicity against peptide-specific or non-specific T2-pulsed cells (as described above). […]

Assay [4] concerns prostate cancer cell lines (LNCaP, MDA-Pca-2B, DU145). Nature of the assay: Cytotoxicity of AR811 CD8+ T-cell clone against prostate cancer cell lines, with HLA-A2 blocking antibody. The note with it: HLA-A2-negative DU145. It counts as cell-based, human. As to the method:
In addition, lysis was evaluated following pre-treatment of LNCaP with an HLA-A2 blocking monoclonal antibody (starburst). Shown is a cytotoxicity assay of an AR811 CD8+ cell clone. Cells were restimulated for seven days using peptide-pulsed antigen presenting cells, followed on day seven by a rest period of three days before they were analyzed for their cytotoxic activity.
To conduct a mini-cytotoxicity assay of limited-dilution clones, 50 μl (¼) of the cultured clones were incubated for four hours with either T2 cells pulsed with the specific peptide, a non-specific peptide, or media alone. For the subsequent characterization of CTL clone cytotoxicity against prostate cancer cells, cryopreserved CTL clones were thawed, washed 3 times, and restimulated by incubating the clones with peptide-pulsed irradiated TK6 cells for 7 days. These clones were then resuspended in 10 U/mL IL-2, and allowed to incubate for three days at 37° C./5% CO2. They were then analyzed for cytotoxicity (as described above) against four prostate cancer cell lines: LNCaP, DU145, LAPC4, and MDAPCa-2b cell lines. To characterize HLA-A2-restriction of observed cytotoxicity, a HLA-A2 antibody was added to the reaction (Clone BB7.2, BD Biosciences, 1 μg/mL).

For assay [5], the system named is T2 cells pulsed with the AR811 peptide. Kind of assay: Immunization of HLA-A2/DR1 (HHD-II) mice with peptide, splenocyte CTL assay. It counts as in vivo. The note with it: once 100 μg peptide in CFA, splenocytes after one week.

Entries after “also recorded” stand apart in the source; their conditions may differ.

Consider ALLSSLNEL [AR700], for which the “Peptide-specific lysis (Number of patients)” value in assay [1] is 1/11. In assay [2], the “Prostate cancer cell lysis” value was “−”.
The like results for FLCMKALLL [AR805] were, in that order, 3/11 and “+/−”.
The like results for FSIIPVDGL [AR814] were, in that order, 3/11 and “−”.
The like results for KLLDSVQPI [AR862] were, in that order, 5/11 and “−”.
In the case of LGERQLVHVV [AR708], in assay [1], the “Peptide-specific lysis (Number of patients)” value is given as 1/11. In addition, the “Prostate cancer cell lysis” value in assay [2] is “−”.
Consider LLLFSIIPV [AR811], for which, in assay [1], the “Peptide-specific lysis of T2 cells by peptide-specific T-cells (FIG. 6)” value is given as “lyse T2 cells in a peptide-specific fashion” and the “Peptide-specific lysis (Number of patients)” value was 7/11. For the same sequence, in assay [2], the “Lysis of the LNCaP cell line by peptide-specific T-cells (FIG. 6)” value is on record as “could lyse the LNCaP cell line” and the “Prostate cancer cell lysis” value is “+”. Also, the “IFNγ and TNFα secretion of peptide-specific T-cell clone (FIG. 7)” value in assay [3] was “secrete both IFNγ and TNFα in response to peptide stimulation; also recorded: secretes IFNγ and TNFα in response to peptide stimulation”. The “Lysis of prostate cancer cells by AR811 T-cell clone, HLA-A2 restriction (FIG. 8)” value in assay [4] was “lysed prostate cancer cells in an MHC class I-restricted fashion; also recorded: naturally processed HLA-A2-restricted T-cell epitope”. In addition, the “Peptide-specific CTL after immunization (FIG. 9)” value in assay [5] is on record as “AR811 peptide-specific CTL could be identified after immunization; also recorded: develop peptide-specific CTL”.
For QLTKLLDSV [AR859], in assay [1], the “Peptide-specific lysis of T2 cells by peptide-specific T-cells (FIG. 6)” value is “showed peptide-specific lysis” and the “Peptide-specific lysis (Number of patients)” value is recorded as 2/11. For the same sequence, in assay [2], the “Lysis of the LNCaP cell line by peptide-specific T-cells (FIG. 6)” value is “did not lyse the LNCaP cell line” and the “Prostate cancer cell lysis” value is recorded as “+/−”.
Take RMLYFAPDLV [AR761]: the “Peptide-specific lysis (Number of patients)” value in assay [1] is 6/11. For the same sequence, in assay [2], the “Prostate cancer cell lysis” value is listed as “+/−”.
Turning to VLEAIEPGV [AR677], in assay [1], the “Peptide-specific lysis (Number of patients)” value is 2/11. In addition, in assay [2], the “Prostate cancer cell lysis” value is on record as “−”.
Turning to WMGLMVFAM [AR742], in assay [1], the “Peptide-specific lysis (Number of patients)” value is 2/11. For the same sequence, the “Prostate cancer cell lysis” value in assay [2] was “−”.
